*1 amine or outer side, *2 acyl side, *3 side chain or, on linkers, in order; H or OH if unused. Where a SMILES comes first, the peptide text is derived from it. Bridges are numbered along the chain shown (N, C = ends). [ ]: non-standard residue; d: D form. The star is where a group is joined. hTyr(3S-OH,4S-OH,3'-OSO3H) = N[C@H](C(=O)O)[C@H](O)[C@@H](O)c1ccc(O)c(OS(=O)(=O)O)c1; Orn(4R-OH,5R-OH) = O=C([C@H](C[C@@H](O)[C@@H](O)N[*:3])N[*:1])[*:2]; Pro(3S-OH,4S-Me) = C[C@H]1CN[C@H](C(=O)O)[C@H]1O; X1 = CCCCCOc1ccc(-c2cc(-c3ccc(C(=O)*)cc3)no2)cc1; Gln(3R-OH) = NC(=O)C[C@@H](O)[C@H](N)C(=O)O; Hyp = O=C(O)[C@@H]1C[C@@H](O)CN1
What was measured:
[1] = biological target: 5-hydroxytryptamine receptor 2B (Homo sapiens, UniProt P41595); assay type: functional, cell-based
Sequence of 5-hydroxytryptamine receptor 2B (P41595 whole entry): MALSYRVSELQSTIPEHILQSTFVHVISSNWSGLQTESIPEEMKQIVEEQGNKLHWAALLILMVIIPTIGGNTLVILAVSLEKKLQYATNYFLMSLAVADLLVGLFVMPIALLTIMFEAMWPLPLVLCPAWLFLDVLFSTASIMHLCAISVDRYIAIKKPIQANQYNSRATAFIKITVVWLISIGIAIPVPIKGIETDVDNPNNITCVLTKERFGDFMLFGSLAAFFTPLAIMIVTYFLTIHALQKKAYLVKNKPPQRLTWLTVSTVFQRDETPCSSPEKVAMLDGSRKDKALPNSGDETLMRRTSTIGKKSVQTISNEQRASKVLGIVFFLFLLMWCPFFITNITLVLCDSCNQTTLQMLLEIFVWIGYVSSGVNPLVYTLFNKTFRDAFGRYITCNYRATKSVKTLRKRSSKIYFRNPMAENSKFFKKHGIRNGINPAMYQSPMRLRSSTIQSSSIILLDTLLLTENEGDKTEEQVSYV

Adenosine receptor A2a = Adenosine receptor A2a (Homo sapiens, UniProt P29274)
Sequence of Adenosine receptor A2a (P29274 whole entry): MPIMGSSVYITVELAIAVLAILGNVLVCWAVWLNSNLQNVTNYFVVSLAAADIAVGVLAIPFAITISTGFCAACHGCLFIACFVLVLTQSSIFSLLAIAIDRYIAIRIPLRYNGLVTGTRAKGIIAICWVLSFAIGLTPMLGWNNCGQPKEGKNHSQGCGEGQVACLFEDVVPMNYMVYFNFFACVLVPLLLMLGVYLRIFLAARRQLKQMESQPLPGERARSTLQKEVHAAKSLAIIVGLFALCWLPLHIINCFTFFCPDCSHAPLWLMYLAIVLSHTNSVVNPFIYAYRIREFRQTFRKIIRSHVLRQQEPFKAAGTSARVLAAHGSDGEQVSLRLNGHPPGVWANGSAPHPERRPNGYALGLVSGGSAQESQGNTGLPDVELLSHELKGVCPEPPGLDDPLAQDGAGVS

Bile salt export pump = Bile salt export pump (Homo sapiens, UniProt O95342); assay type: functional
Sequence of Bile salt export pump (O95342 whole entry): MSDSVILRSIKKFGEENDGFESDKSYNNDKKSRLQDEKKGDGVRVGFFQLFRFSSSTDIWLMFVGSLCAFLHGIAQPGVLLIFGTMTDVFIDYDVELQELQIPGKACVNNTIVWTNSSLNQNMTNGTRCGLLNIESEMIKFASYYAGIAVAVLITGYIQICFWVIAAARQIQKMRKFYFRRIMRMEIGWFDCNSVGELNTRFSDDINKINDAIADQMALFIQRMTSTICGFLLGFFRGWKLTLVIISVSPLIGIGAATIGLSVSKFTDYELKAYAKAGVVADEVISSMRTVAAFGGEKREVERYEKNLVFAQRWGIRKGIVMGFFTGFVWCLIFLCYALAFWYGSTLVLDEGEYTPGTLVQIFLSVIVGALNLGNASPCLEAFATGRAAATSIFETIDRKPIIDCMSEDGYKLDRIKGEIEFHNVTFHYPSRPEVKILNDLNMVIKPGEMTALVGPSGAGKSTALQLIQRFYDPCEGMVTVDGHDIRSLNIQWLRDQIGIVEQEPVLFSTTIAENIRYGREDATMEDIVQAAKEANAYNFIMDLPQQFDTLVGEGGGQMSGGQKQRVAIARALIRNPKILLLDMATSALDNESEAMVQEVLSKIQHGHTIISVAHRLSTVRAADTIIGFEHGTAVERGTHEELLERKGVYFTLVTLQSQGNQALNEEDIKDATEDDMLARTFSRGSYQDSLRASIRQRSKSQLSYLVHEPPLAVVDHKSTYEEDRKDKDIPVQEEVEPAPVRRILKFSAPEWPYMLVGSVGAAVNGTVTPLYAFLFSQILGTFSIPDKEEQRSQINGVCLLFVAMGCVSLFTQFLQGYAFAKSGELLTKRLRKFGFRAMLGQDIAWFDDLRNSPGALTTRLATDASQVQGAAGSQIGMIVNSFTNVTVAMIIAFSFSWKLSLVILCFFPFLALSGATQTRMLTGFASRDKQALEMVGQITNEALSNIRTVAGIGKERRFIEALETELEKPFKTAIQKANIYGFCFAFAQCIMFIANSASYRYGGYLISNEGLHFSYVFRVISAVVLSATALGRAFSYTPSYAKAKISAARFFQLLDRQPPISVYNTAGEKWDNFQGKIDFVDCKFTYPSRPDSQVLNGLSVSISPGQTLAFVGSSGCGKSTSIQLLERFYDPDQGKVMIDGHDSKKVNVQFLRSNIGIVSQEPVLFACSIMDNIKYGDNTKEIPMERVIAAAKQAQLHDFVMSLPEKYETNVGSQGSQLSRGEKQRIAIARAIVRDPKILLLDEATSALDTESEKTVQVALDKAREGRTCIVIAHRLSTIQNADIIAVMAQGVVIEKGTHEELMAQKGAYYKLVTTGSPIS

[2] = biological target: Beta-1 adrenergic receptor (Homo sapiens, UniProt P08588); assay type: functional
Sequence of Beta-1 adrenergic receptor (P08588 whole entry): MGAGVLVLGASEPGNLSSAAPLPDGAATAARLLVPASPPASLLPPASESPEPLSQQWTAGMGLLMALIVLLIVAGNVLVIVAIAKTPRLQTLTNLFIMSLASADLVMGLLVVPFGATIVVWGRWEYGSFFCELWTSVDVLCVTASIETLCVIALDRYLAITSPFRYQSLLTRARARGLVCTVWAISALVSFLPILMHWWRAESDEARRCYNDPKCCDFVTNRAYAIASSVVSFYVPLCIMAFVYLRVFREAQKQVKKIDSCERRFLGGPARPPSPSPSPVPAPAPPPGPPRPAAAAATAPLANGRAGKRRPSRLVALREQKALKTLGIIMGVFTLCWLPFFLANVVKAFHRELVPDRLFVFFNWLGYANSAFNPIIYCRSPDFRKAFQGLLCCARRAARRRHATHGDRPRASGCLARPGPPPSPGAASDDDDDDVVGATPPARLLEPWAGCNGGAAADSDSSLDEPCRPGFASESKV

[3] = biological target: Gamma-aminobutyric acid receptor subunit alpha-1 (Rattus norvegicus, UniProt P62813)
Sequence of Gamma-aminobutyric acid receptor subunit alpha-1 (P62813 whole entry): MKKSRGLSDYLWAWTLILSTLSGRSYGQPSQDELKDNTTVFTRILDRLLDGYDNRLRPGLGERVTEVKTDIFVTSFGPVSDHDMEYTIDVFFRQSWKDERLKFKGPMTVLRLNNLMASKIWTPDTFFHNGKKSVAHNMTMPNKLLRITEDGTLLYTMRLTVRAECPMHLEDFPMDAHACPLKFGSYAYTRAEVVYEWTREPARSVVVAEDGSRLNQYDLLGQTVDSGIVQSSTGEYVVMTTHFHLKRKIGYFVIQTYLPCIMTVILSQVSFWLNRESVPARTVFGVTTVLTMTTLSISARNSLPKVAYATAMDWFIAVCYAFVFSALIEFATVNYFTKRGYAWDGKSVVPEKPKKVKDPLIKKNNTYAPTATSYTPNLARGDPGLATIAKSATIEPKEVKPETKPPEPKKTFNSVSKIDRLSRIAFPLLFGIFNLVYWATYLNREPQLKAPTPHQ

[4] = biological target: T1, Gastrin/cholecystokinin type B receptor (Homo sapiens, UniProt P32239)
T1 sequence (P32239 whole entry): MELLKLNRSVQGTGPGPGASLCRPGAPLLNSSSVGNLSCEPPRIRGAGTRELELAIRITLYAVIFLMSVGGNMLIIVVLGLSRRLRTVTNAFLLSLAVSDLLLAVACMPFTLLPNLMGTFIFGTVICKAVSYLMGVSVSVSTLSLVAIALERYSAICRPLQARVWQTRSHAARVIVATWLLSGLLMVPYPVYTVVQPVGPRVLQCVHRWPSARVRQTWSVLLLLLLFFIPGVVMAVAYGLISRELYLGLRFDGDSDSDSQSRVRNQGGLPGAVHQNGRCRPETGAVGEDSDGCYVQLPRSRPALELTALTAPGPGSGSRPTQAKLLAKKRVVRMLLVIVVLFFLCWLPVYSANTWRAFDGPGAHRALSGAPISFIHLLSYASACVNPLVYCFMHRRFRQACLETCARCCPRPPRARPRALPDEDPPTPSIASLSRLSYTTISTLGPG

[5] = biological target: T2, 5-hydroxytryptamine receptor 1A (Homo sapiens, UniProt P08908); assay type: functional, cell-based
T2 sequence (P08908 whole entry): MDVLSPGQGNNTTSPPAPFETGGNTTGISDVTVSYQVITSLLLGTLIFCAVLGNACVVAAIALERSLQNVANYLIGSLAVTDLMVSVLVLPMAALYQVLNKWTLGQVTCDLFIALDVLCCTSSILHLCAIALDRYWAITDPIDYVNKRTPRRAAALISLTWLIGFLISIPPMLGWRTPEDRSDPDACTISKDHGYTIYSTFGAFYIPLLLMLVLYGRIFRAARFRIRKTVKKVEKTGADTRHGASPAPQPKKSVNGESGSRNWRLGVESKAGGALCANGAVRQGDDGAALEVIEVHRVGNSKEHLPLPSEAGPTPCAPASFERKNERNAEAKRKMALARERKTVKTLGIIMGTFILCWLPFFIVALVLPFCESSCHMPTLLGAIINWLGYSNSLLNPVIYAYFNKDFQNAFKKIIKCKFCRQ

Progesterone receptor [6] = biological target: T3, Progesterone receptor (Homo sapiens, UniProt P06401); assay type: functional
T3 sequence (P06401 whole entry): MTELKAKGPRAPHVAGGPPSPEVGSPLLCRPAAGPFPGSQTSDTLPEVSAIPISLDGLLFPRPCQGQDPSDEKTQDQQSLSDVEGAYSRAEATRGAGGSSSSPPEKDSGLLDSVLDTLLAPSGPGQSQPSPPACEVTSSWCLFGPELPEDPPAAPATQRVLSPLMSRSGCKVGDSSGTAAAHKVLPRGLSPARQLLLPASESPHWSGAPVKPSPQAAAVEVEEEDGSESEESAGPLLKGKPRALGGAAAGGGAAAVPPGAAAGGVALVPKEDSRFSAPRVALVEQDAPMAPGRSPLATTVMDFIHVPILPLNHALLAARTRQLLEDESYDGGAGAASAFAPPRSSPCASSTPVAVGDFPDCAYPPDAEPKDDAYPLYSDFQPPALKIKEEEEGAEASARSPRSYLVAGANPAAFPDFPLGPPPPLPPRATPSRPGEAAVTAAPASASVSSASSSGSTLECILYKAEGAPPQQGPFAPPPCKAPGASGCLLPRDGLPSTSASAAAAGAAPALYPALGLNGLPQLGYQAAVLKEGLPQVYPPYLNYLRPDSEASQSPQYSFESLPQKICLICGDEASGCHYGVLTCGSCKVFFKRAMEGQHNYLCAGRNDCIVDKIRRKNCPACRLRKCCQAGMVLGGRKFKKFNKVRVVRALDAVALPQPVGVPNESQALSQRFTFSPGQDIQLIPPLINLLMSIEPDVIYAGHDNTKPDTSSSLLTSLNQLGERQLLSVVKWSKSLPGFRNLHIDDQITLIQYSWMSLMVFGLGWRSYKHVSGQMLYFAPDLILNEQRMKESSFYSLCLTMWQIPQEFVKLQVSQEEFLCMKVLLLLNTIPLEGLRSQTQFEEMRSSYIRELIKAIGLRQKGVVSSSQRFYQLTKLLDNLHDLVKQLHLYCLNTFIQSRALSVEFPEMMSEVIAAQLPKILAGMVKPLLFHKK

[7] = biological target: Sodium-dependent serotonin transporter (Homo sapiens, UniProt P31645)
Sequence of Sodium-dependent serotonin transporter (P31645 whole entry): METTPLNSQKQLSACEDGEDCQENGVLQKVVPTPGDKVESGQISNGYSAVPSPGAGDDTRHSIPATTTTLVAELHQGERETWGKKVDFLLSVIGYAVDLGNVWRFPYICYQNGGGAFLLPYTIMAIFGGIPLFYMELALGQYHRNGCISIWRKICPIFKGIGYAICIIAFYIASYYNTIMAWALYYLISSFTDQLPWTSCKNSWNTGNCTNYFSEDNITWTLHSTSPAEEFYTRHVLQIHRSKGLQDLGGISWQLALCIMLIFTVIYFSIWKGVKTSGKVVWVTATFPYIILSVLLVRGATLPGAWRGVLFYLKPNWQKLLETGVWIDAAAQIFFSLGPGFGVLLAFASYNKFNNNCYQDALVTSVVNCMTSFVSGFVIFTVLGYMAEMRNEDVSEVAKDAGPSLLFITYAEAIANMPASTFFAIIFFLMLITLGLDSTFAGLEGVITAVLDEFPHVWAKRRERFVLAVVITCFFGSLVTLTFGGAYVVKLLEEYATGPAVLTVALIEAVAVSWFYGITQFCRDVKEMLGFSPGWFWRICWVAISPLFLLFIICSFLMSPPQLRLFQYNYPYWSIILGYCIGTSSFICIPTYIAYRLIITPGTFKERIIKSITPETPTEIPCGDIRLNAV

[8] = biological target: T4, Alpha-2A adrenergic receptor (Homo sapiens, UniProt P08913)
T4 sequence (P08913 whole entry): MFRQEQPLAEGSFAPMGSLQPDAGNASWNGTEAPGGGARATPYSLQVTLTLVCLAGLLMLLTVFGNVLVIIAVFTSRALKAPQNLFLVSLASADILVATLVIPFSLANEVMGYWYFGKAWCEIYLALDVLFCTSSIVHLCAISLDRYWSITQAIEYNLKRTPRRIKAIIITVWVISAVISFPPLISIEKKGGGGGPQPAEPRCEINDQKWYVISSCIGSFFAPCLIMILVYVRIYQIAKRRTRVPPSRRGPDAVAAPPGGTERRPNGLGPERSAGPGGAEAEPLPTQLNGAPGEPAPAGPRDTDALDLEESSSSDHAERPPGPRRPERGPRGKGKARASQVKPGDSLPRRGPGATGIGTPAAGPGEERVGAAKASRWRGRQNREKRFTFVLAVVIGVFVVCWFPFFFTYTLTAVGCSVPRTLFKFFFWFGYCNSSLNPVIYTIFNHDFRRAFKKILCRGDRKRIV

Progesterone receptor [9] = biological target: T3, Progesterone receptor
[10] = biological target: Beta-2 adrenergic receptor (Homo sapiens, UniProt P07550); assay type: functional, cell-based
Sequence of Beta-2 adrenergic receptor (P07550 whole entry): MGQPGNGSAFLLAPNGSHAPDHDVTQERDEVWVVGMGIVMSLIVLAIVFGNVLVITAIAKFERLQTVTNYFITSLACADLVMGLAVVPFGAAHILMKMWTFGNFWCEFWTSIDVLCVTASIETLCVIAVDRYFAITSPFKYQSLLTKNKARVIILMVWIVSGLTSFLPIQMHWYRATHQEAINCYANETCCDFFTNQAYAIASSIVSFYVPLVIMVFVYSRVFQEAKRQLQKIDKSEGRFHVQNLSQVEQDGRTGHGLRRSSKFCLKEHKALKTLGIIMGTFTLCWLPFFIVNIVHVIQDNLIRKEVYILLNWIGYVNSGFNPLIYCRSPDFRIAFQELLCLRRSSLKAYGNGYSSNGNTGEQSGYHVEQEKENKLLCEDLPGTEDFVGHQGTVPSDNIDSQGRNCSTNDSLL
Note: assay procedure not described here.

Row | SMILES | AC50 [1] [µM] | AC50 (Adenosine receptor A2a) [µM] | AC50 (Bile salt export pump) [µM] | AC50 [2] [µM] | AC50 [3] [µM] | AC50 [4] [µM] | AC50 [5] [µM] | AC50 (Progesterone receptor [6]) [µM] | AC50 [7] [µM] | AC50 [8] [µM] | AC50 (Progesterone receptor [9]) [µM] | AC50 [10] [µM]
1 | Clc1cccc(Cl)c1N=C1NCCN1 [CLONIDINE] | > 10 | > 30 | > 300 | > 10 | > 10 | > 30 | > 10 |  |  |  |  | 
2 | NC(=O)c1ncn([C@@H]2O[C@H](CO)[C@@H](O)[C@H]2O)n1 [RIBAVIRIN] | > 10 | > 10 | > 300 | > 10 | > 10 |  | > 10 | > 10 |  |  |  | 
3 | CNCCC=C1c2ccccc2CCc2ccccc21 [NORTRIPTYLINE] | > 30 | > 30 | > 300 |  | > 30 | > 30 | > 30 | > 30 |  |  |  | 
4 | O=C(O)COc1nn(Cc2ccccc2)c2ccccc12 [BENDAZAC] |  |  | 260 |  |  |  |  |  | > 30 | > 30 | > 30 | 
5 | Cn1c(=O)c2c(ncn2CC(O)CO)n(C)c1=O (configuration not stated) [DYPHYLLINE] |  |  | > 300 |  |  |  |  |  |  | > 30 | > 30 | 
6 | NC(=O)NS(=O)(=O)c1ccc(N)cc1 [SULFACARBAMIDE] |  |  | > 300 |  |  |  |  |  | > 30 | > 30 | > 30 | 
7 | CN(C)c1cc(CNCC(C)(C)C)c(O)c2c1C[C@H]1C[C@H]3[C@H](N(C)C)C(O)=C(C(N)=O)C(=O)[C@@]3(O)C(O)=C1C2=O [OMADACYCLINE] | > 30 | > 30 |  | > 30 | > 30 | > 30 | > 30 | > 30 | > 30 | > 30 | > 30 | > 30
8 | Cc1ccc([C@@H]2O[C@H](CO)[C@@H](O)[C@H](O)[C@H]2O)cc1Cc1ccc(-c2ccc(F)cc2)s1 [CANAGLIFLOZIN ANHYDROUS] |  |  | 38 |  |  |  |  |  | 26.1 | > 30 | > 30 | 
9 | CNCC[C@H](Oc1cccc2ccccc12)c1cccs1 [DULOXETINE] | > 10 | > 30 | > 300 | 15 | > 10 | > 30 | 8.9 |  |  |  |  | 
10 | CN1CCN(CCCN2c3ccccc3Sc3ccc(S(=O)(=O)N(C)C)cc32)CC1 [THIOPROPERAZINE] | > 30 |  |  |  | > 30 |  |  |  | 17.3 | 1.42 | > 30 | > 30
11 | CC(C)[N+](C)(CCOC(=O)C1c2ccccc2Oc2ccccc21)C(C)C [PROPANTHELINE] |  |  | > 300 |  |  |  |  |  | > 30 | > 30 | > 30 | 
12 | CCCCCCCCCCC[C@@H](C[C@@H]1OC(=O)[C@H]1CCCCCC)OC(=O)[C@H](CC(C)C)NC=O [ORLISTAT] |  |  | > 300 |  |  |  |  |  | > 30 | > 30 | > 30 | 
13 | CN1C[C@H](C(=O)N[C@]2(C)O[C@@]3(O)[C@@H]4CCCN4C(=O)[C@H](Cc4ccccc4)N3C2=O)C[C@@H]2c3cccc4[nH]cc(c34)C[C@H]21 [DIHYDROERGOTAMINE] | 2.77 | > 30 | 28 | > 10 | > 10 | > 30 | 0.14 |  |  |  |  | 
14 | CNCC[C@@H](Oc1ccccc1C)c1ccccc1 [ATOMOXETINE] | > 30 | > 30 | > 300 | > 30 |  | > 30 |  | > 30 |  |  |  | 
15 | O=C(O)CCCc1ccc(N(CCCl)CCCl)cc1 [CHLORAMBUCIL] |  |  | 270 |  |  |  |  |  |  | > 30 | > 30 | 
16 | CC1(C)S[C@@H]2[C@H](NC(=O)[C@H](N)c3ccc(O)cc3)C(=O)N2[C@H]1C(=O)O [AMOXICILLIN] | > 30 | > 30 | > 300 | > 30 | > 30 | > 30 | > 30 | > 30 |  |  |  | 
17 | COc1ccc(Cc2nccc3cc(OC)c(OC)cc23)cc1OC [PAPAVERINE] | > 30 | > 30 | 46 | > 30 | > 30 | > 30 | > 30 | > 30 |  |  |  | 
18 | CC(C)COc1ccc(CNC(=O)N(Cc2ccc(F)cc2)C2CCN(C)CC2)cc1 [PIMAVANSERIN] |  |  | 65 |  |  |  |  |  | > 30 | > 30 | > 30 | 
19 | O=C(Nc1c(Cl)cncc1Cl)c1ccc(OC(F)F)c(OCC2CC2)c1 [ROFLUMILAST] | > 30 | > 30 | 4 | > 30 | > 30 | > 30 | > 30 | > 30 |  |  |  | 
20 | CCCCCOc1ccc(-c2cc(-c3ccc(C(=O)N[C@H]4C[C@@H](O)[C@@H](O)NC(=O)[C@@H]5[C@@H](O)[C@@H](C)CN5C(=O)[C@H]([C@H](O)CC(N)=O)NC(=O)[C@H]([C@H](O)[C@@H](O)c5ccc(O)c(OS(=O)(=O)O)c5)NC(=O)[C@@H]5C[C@@H](O)CN5C(=O)[C@H]([C@@H](C)O)NC4=O)cc3)no2)cc1 [MICAFUNGIN] (X1-[Orn(4R-OH,5R-OH)]T[Hyp][hTyr(3S-OH,4S-OH,3'-OSO3H)][Gln(3R-OH)][Pro(3S-OH,4S-Me)]; lactam 1-C) |  |  |  |  |  |  |  |  | > 30 | > 30 | 3.87 | 
21 | NCCc1ccc(O)cc1 [TYRAMINE] |  |  | > 300 |  |  |  |  |  | > 30 | 22 | > 30 | 
22 | CN(C)CCCN1C(=O)c2cc([N+](=O)[O-])ccc2Oc2ccccc21 |  |  |  |  |  |  |  |  | 0.271 | 28.4 | > 30 | 
23 | C[C@]12CC[C@@H]3c4ccc(O)cc4CC[C@H]3[C@@H]1CC[C@@H]2OC(=O)CCC1CCCC1 [ESTRADIOL CYPIONATE] |  |  |  |  |  |  |  |  | > 30 | > 30 | 1.65 | 
24 | CCOc1ccc2ccccc2c1C(=O)N[C@@H]1C(=O)N2[C@@H]1SC(C)(C)[C@@H]2C(=O)O [NAFCILLIN] |  |  | 40 |  |  |  |  |  | > 30 | > 30 | > 30 | 
25 | CCCCCCCCNC(C)C(O)c1ccc(SC(C)C)cc1 (configuration not stated) [SULOCTIDIL] |  |  | 64 |  |  |  |  |  |  | 6.75 | > 30 | 
